Experiment [1] has as its system cathepsin B and CRABPII transcription. The experiment is described as follows: L1-dependent gene regulation by qPCR in HEK293-hL1wt cells. As to conditions: preincubation 96 h. The class given is cell-based, human. The protocol:
(§1) (A) Analysis of L1-32 cleavage by γ-secretase. Cells were treated for 48 h at 37° C. with presenilin inhibitor IX (DAPT) or for control with DMSO. Isolated membranes were incubated for 2 h at 37° C. and then separated into pellet or supernatant (SN) fractions by ultracentrifugation. Lanes 1 to 2 show cells treated with DMSO (vehicle). Lanes 3 and 4 show cells preincubated with DAPT. (B) SKOV3ip cells were treated with DAPT either in the presence or absence of the metalloprotease inhibitor TAPI-0 for 24 hr. Cells were lysed in BOG lysis buffer and analyzed by Western blot analysis. The cell supernatant was analyzed for soluble L1 using mAb L1-11A and the cell lysate was examined for L1-32 using peytL1. (C) HEK293 or HEK293-hL1wt cells were treated with DMSO, DAPT, TAPI-0 or both inhibitors for 96 h. mRNA was transcribed to cDNA and analyzed by qPCR for the genes CRABPII and cathepsin B. (D) Analysis of ERK phosphorylation in SKOV3ip cells after treatment with the indicated compounds.
We next investigated whether L1-mediated gene regulation was dependent on L1-processing, by carrying out inhibition experiments. […]
mRNA was isolated using the Quiagen RNAeasy mini kit (Quiagen Hilden, Germany). […] After exposing of the hybridized membranes, the PhosphorImager screens were scanned (Fuji FLA-3000, 100 μm resolution, Fuji BAS-reader software). […]

The subject of experiment [2] is L1. The experiment is described as follows: L1 processing in SKOV3ip cells (L1-32 in lysate, soluble L1 in supernatant), Western blot. As to conditions: 24 hr. The experiment is classed as cell-based, human. The protocol: as §1
(§2) (A) Effect of L1-antibodies on ERK phosphorylation in SKOV3ip cells. The cells were incubated for 24 hr at 37° C. with the indicated purified antibodies to L1 (10 μg/ml) or isotype control IgG. […] Soluble L1 in the supernant and L1-32 in the cell lysate were analyzed by Western blot. (C) mRNA was isolated from antibody treated SKOV3ip cells, transcribed to cDNA and analyzed by qPCR for the indicated genes. […]
(In general: Immunoblotting shows a protein as a band on a membrane.)

Experiment [3] deals with ERK phosphorylation. In words: ERK phosphorylation in SKOV3ip cells. The experiment is classed as cell-based, human. The following applies: treatment with DAPT, TAPI-0. The protocol: as §1, §2
For experiment [4], the system named is γ-secretase. In words: In vitro γ-secretase activity on membranes of CHO-hL1wt cells. The following applies: cells preincubated 48 h with inhibitor; membranes 2 h at 37° C. The class given is cell-based. The method, then: as §1
Consecutive cleavage by both enzymes is a hallmark of Notch, APP and CD44 signaling that is followed by translocation of the intracellular portion to the nucleus (22). To verify this observation for tumor cells, we analyzed the processing of L1-32 in more detail. […] Indeed, we detected L1-28 in the supernatant fraction (FIG. 11A, lane 2). […]

Experiment [5] relates to HEK293-hL1wt cells. The experiment is described as follows: Haptotactic cell migration on fibronectin, HEK293-hL1wt. The class given is cell-based, human. As to conditions: MEK inhibitor at 20 μM. The method, then:
(A) L1 processing and cleavage in transfected HEK293 cells. The cell lysates were analyzed by Western blot with pcyt-L1 recognizing the cytoplasmic portion of L1. The nomenclature of L1-cleavage fragments is according to a previous publication (Mechtersheimer et al, 2001). (B) ELISA analysis. Soluble L1 levels in the medium of HEK293-hL1wt or HEK293-hL1mutTS cells treated with or without PMA stimulation for 1 h at 37° C. was analyzed. Lysates from both cell lines were used as positive controls. (C) Stimulation of cell migration on fibronectin by recombinant L1-Fc. The fusion protein was added at the final concentration of 0.6 μg/ml. […] (E) Phosphorylation of ERK1/2, FAK, PAK 1 and Src was analyzed in HEK293, HEK293-hL1wt and HEK293-hL1mutTS cells grown in serum. […] Labelled proteins were detected by autoradiography.
(A) HEK293 cells or HEK293-hL1wt cells were transfected transiently with plasmids (10 μg DNA) encoding hL1mut, dominant-negative ADAM10 (ADAM10-DN) or empty pcDNA3 vector. […] 48 h after transfection, cells were analyzed for haptotactic cell migration on fibronectin. […] 48 h after transduction with hL1wt or hL1mutTS adenovirus or YFP-TM adenovirus for control, KS cells or the L1 positive ovarian carcinoma cells OVMz, SKOV3ip and MO68 were analyzed for haptotactic cell migration on fibronectin as described in the legend to FIG. 1. […]

The test system of experiment [6] is L1CAM. The experiment is described as follows: L1CAM expression in PT45-P1 cells. The class given is cell-based, human. The following applies: 20 ng/mL IL1β. The protocol: (a) PT45-P1res cells were either left untreated (w/o) or treated with 250 ng/mL IL1-RA for 6 hours. In parallel, PT45-P1 cells were either left untreated (w/o) or treated with 20 ng/mL IL1β for 6 hours. L1CAM mRNA levels were analysed by real-time PCR and compared with β-actin used as control. Data from duplicate measurements are expressed as amount of mRNA in arbitrary units. Results from one representative out of three experiments are shown. (b) Cellular lysates from PT45-P1res and PT45-P1 cells were subjected to western blotting using an antibody for the detection of full-length L1CAM. PT45-P1res cells were either left untreated (w/o) or treated with 250 ng/mL IL1-RA for 24 hours. In parallel, PT45-P1 cells were either left untreated (w/o) or treated with 20 ng/mL IL1β for 24 hours. In all experiments, a HSP90 antibody was used as a control for equal protein load.
Cells were seeded into 6 well and 12 well plates, respectively, and transfected or treated as indicated. […] Protein concentrations were determined using the Dc Protein assay (BioRad). […]
2 μg of total RNA were reverse-transcribed into single-stranded cDNA, as described previously (Schafer et al., 1999). […] Data were collected during annealing steps and were further analysed by using the i-Cycler iQ Optical system software (BioRad). All samples were analysed in duplicates and data are expressed as amount of mRNA in arbitrary units.

Consider `C[C@H](NC(=O)Cc1cc(F)cc(F)c1)C(=O)N[C@H](C(=O)OC(C)(C)C)c1ccccc1` [DAPT], for which the “L1-dependent regulation of transcription for cathepsin B and CRABPII” value in experiment [1] is reported as “blocked”. In experiment [2], the “L1-32 in cell lysate” value was “strong increase in the metalloprotease cleavage fragment L1-32” and the “soluble L1 in the medium” value is on record as “not increased by the treatment”. Also, the “ERK activation in treated cells” value in experiment [3] was “did not interfere with ERK activation”. Also, in experiment [4], the “release of L1-28 from the membrane into the supernatant” value is “could not release this fragment into the supernatant”.
Turning to `COc1cccc(-c2cc(=O)c3ccccc3o2)c1N` [PD59098], the cell migration result in experiment [5] is listed as “Inhibition of cell migration was also observed”.
On to “IL1β: recombinant human Interleukin 1 beta from R&D Systems”, for which, in experiment [6], the L1CAM expression entry is “enhanced L1CAM expression”.

(Values after patent publication US20080299123A1, “TREATMENT OF CHEMOTHERAPY- OR RADIOTHERAPY-RESISTANT TUMORS” (Deutsches Krebsforschungszentrum Stiftung des offentlichen …, priority 2006, published 2008).)
